These results are taken from ChEMBL document CHEMBL2406999, “Vialinin A is a ubiquitin-specific peptidase inhibitor” (Bioorg Med Chem Lett, 2013).

Assay [1] relates to RBL-2H3. Nature of the assay: Binding affinity to USP5 in rat RBL2H3 cell extracts at 10 to 40 uM by SDS-PAGE analysis.
Assay [2] has as its system T1, Ubiquitin carboxyl-terminal hydrolase 5 (Homo sapiens), P45974 [C335A,H818A].
T1 sequence (whole entry): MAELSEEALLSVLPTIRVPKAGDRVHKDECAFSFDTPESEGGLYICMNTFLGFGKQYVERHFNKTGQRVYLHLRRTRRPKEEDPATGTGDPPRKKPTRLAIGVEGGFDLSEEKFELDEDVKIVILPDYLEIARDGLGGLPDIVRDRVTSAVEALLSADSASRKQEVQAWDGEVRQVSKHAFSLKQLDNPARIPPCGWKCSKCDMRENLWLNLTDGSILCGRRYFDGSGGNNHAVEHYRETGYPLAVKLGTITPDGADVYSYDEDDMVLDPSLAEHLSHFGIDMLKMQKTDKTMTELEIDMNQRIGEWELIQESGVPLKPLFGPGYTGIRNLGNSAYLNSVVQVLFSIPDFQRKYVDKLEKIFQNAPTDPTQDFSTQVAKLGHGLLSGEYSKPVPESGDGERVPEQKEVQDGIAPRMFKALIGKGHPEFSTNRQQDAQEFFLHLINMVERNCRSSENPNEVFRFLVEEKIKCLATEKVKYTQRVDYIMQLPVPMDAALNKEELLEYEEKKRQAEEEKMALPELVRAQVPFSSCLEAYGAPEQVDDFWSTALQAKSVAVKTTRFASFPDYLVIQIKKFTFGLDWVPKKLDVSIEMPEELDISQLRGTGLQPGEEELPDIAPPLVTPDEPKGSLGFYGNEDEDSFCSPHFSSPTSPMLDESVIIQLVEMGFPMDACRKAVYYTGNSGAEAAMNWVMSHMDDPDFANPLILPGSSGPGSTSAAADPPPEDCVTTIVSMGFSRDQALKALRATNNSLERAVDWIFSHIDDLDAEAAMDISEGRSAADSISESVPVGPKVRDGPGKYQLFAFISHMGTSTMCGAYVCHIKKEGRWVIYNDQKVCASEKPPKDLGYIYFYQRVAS
The assay can be described thus: Competitive binding affinity to human USP5 C335A/H818A mutant by SDS-PAGE analysis in presence of biotin-DMT.

Calls of active or inactive are those of the source. The rule behind the calls is not given here.

Regarding `O=C(Cc1ccccc1)Oc1c(OC(=O)Cc2ccccc2)c(-c2ccc(O)cc2)c(O)c(O)c1-c1ccc(O)cc1` [VIALININ A], the result in assay [1] and in assay [2] was inactive.
